Experimental data: patent US11738002B2, “Methods of treating neurological and psychiatric disorders” (Sunovion Pharmaceuticals Inc., priority 2020, dated 2023)

Experiments:
[1] = test system: female Lister hooded rats; details: rat, in vivo
Description: (§1) Experimentally naïve rats were housed individually in plastic cages containing bedding. Housing rooms were maintained under a 12/12-hour light/dark cycle at controlled ambient temperature and relative humidity. Animals were allowed to acclimate to laboratory conditions before the beginning of experiments and had free access to water. Access to food was restricted to facilitate training and maintenance of operant behavior with the exception of training of female rats in the MDMA drug discrimination study. Experiments were conducted in operant chambers (MED Associates, Inc., St. Albans, Vt., U.S.A.) located within sound-attenuating, ventilated cubicles. Each chamber was equipped with a stimulus light, lever(s) located near a food receptacle which was connected to a food pellet dispenser. Chambers used for reinstatement studies were also equipped with a Sonalert® tone generator.
The training substance was administered 15 minutes before the session. […] The percentage of total responses on the training drug-appropriate lever and response rates were calculated for each rat.

[2] = test system: Female Sprague Dawley Rats; assay: withdrawal-induced physical dependence study
Description: Animals were not dosed during the withdrawal phase. Dosing in the morning was staggered such that every animal was observed individually on each day.
Body weights were recorded prior to each dosing session on Day −6 to Day 46 and in the morning during the withdrawal phase. Only body weight recorded prior to the morning dosing session was used for statistical analysis. Food and water intake were measured once daily in the morning from Day −6 to Day 46 just prior to dosing, and in the morning of the withdrawal phase. Body temperatures were measured once daily using a rectal probe from Day −6 to Day 46 just prior to dosing, and, immediately prior to body weight measurement during the withdrawal. A detailed observation checklist was used to record any physical or behavioral signs of pharmacological effect during dosing and of drug dependence in the withdrawal phase. Rats were observed on a workbench in their open topped home cages (in the holding room where they were kept throughout the study) for a 2 min period 1 hr after the morning dose during the baseline and dosing phases and twice daily on Day 46 and during the withdrawal phase. […] For all other endpoints, withdrawal begins on Day 47.

[3] = test system: male SD rats trained to self-administer heroin; assay: self-administration (heroin substitution) test; details: Sprague-Dawley, rat, in vivo
Description: as §1

O=C1CC2(CCCC2)CC(=O)N1CCCCN1CCN(c2ncccn2)CC1 [buspirone]
generalization to MDMA [1]: 37.2±20.4% | weak partial generalization to the cue elicited by MDMA [1]: < 50%

CN1C(=O)CN=C(c2ccccc2)c2cc(Cl)ccc21 [diazepam]
weight of the rats vs vehicle at the end of the dosing phase ([2]; 10/15/20 mg/kg p.o. b.i.d. on Days 1-5/6-18/19-46): 5.4% | withdrawal signs on cessation of dosing ([2]; 10/15/20 mg/kg p.o. b.i.d., 46 days): Physical dependence was demonstrated

CC(=O)Oc1ccc2c3c1O[C@H]1[C@@H](OC(C)=O)C=C[C@H]4[C@@H](C2)N(C)CC[C@@]341 [heroin]
mean number of infusions, heroin acquisition session [3]: 19.0±0.4
